In this assay the target is T1, Ba/F3-TEL-FGFR3 cells (Homo sapiens, UniProt P22607).
T1 construct: fused on or other part: The N-terminal oligomerising part of TEL (ETV6) is fused before the intracellular kinase part of FGFR3; P41212 (Transcription factor ETV6)
Briefly: FGFR3 cellular assay: proliferation of transformed Ba/F3-TEL-FGFR3 cells (AlamarBlue). The assay is classed as cell-based. The conditions noted are these: 48 hours incubation, class symbols. Here is the method:
Compounds of the invention are tested for their ability to inhibit transformed Ba/F3-TEL-FGFR3 cells proliferation, which is dependent on FGFR3 cellular kinase activity. Ba/F3-TEL-FGFR3 are cultured up to 800,000 cells/mL in suspension, with RPMI 1640 supplemented with 10% fetal bovine serum as the culture medium. Cells are dispensed into 384-well format plate at 5000 cell/well in […], culture medium. Compounds of the invention are dissolved and diluted in dimethylsulfoxide (DMSO). Twelve points 1:3 serial dilutions are made into DMSO to create concentrations gradient ranging typically from 10 mM to 0.05 μM. Cells are added with 50 nL of diluted compounds and incubated for 48 hours in cell culture incubator. AlamarBlue® (TREK Diagnostic Systems), which can be used to monitor the reducing environment created by proliferating cells, are added to cells at final concentration of 10%. After additional four hours of incubation in a 37° C. cell culture incubator, fluorescence signals from reduced AlamarBlue® (Excitation at 530 nm, Emission at 580 nm) are quantified on Analyst GT (Molecular Devices Corp.). IC50 values are calculated by linear regression analysis of the percentage inhibition of each compound at 12 concentrations.

T1 sequence (P22607 whole entry, change not shown, the tested form may be a part): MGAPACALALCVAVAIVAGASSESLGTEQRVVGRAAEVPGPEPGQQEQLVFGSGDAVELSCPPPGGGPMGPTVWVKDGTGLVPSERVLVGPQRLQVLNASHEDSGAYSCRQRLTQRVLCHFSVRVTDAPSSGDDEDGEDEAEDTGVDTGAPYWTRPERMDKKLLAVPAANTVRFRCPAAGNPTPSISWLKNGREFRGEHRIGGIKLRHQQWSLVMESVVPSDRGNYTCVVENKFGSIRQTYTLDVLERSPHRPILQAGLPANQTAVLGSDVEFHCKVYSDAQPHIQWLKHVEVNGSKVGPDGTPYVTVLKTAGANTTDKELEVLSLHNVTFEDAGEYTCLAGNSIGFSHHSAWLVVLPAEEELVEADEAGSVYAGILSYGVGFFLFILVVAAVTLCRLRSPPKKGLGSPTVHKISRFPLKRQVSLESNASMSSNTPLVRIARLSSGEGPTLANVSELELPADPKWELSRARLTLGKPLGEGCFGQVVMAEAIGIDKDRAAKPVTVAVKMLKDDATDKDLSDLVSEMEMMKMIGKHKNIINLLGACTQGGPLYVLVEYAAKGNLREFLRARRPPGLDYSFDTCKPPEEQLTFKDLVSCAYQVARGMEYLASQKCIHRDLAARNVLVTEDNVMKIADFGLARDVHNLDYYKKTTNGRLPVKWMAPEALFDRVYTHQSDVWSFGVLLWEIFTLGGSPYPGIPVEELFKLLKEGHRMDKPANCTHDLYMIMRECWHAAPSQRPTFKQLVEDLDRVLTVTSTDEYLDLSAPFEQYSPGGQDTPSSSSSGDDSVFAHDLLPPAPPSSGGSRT

In general, GI50 refers to the concentration giving 50% growth inhibition. Higher therefore signals lower sensitivity of the cells. Compound `CCN1CCN(c2ccc(Nc3cc(-c4cncnc4Nc4c(Cl)c(OC)cc(OC)c4Br)ncn3)nc2)CC1` [Compound 47, N4′-(2-Bromo-6-chloro-3,5-dimethoxy-phenyl)-N6-[5-(4-ethyl-piperazin-1-yl)-pyridin-2-yl]-[4,5′]bipyrimidinyl-6,4′-diamine] came in with a 50% growth inhibitory concentration (GI50) of less than 100 nM.

As to `COc1cc(OC)c(F)c(Nc2ncncc2-c2cc(Nc3cc(CN4CCOCC4)ccn3)ncn2)c1F` [Compound 65, N4′-(2,6-Difluoro-3,5-dimethoxy-phenyl)-N6-(4-morpholin-4-ylmethyl-pyridin-2-yl)-[4,5′]bipyrimidinyl-6,4′-diamine], the 50% growth inhibitory concentration (GI50) is less than 100 nM.

`COc1cc(OC)c(F)c(Nc2ncncc2-c2cc(Nc3ccc(CN4CCN(C(=O)CO)CC4)cn3)ncn2)c1F` [Compound 89] came in with a GI50 of less than 100 nM.

`COc1cc(OC)c(Cl)c(Nc2ncncc2-c2cc(Nc3cccc(C(C)O)c3)ncn2)c1Cl` (stereo not shown) [Compound 29, 1-{3-[4′-(2,6-Dichloro-3,5-dimethoxy-phenylamino)-[4,5′]bipyrimidinyl-6-ylamino]-phenyl}-ethanol] registered a GI50 of less than 100 nM.

With `CCN1CCN(c2ccc(Nc3cc(-c4cncnc4Nc4c(F)c(OC)cc(OC)c4F)ncn3)nc2)CC1` [Compound 62, N4′-(2,6-Difluoro-3,5-dimethoxy-phenyl)-N6-[5-(4-ethyl-piperazin-1-yl)-pyridin-2-yl]-[4,5′]bipyrimidinyl-6,4′-diamine], the GI50 is less than 100 nM.

`COc1cc(Nc2ncncc2-c2cc(Nc3ccc(C(C)O)cn3)ncn2)c(F)c(OC)c1` (stereo not shown) [Compound 83, 1-{6-[4′-(2-Fluoro-3,5-dimethoxy-phenylamino)-[4,5′]bipyrimidinyl-6-ylamino]-pyridin-3-yl}-ethanol] came in with a GI50 of less than 100 nM.

In the case of `CCN1CCN(Cc2ccc(Nc3cc(-c4cncnc4Nc4cc(OC)cc(OC)c4F)ncn3)nc2)CC1` [Compound 69, N6-[5-(4-Ethyl-piperazin-1-ylmethyl)-pyridin-2-yl]-N4′-(2-fluoro-3,5-dimethoxy-phenyl)-[4,5′]bipyrimidinyl-6,4′-diamine], the GI50 was less than 100 nM.

On to `COc1cc(OC)c(Cl)c(Nc2nc(C)ncc2-c2cc(Nc3ccc(CN4CCOCC4)cn3)ncn2)c1F` [Compound 91, N4′-(2-Chloro-6-fluoro-3,5-dimethoxy-phenyl)-2′-methyl-N6-(5-morpholin-4-ylmethyl-pyridin-2-yl)-[4,5′]bipyrimidinyl-6,4′-diamine], for which the concentration for 50% growth inhibition (GI50) is less than 100 nM.

The compound `COc1cc(OC)c(Cl)c(Nc2ncncc2-c2cc(Nc3ccc(CN4CCOCC4)cn3)ncn2)c1Cl` [Compound 4, N4′-(2,6-Dichloro-3,5-dimethoxy-phenyl)-N6-(5-morpholin-4-ylmethyl-pyridin-2-yl)-[4,5′]bipyrimidinyl-6,4′-diamine] showed a concentration for 50% growth inhibition (GI50) of less than 100 nM.

Turning to `COc1cc(Nc2ncncc2-c2cc(Nc3ccc(CN4CCOCC4)cn3)ncn2)c(Cl)c(OC)c1` [Compound 37, N4′-(2-Chloro-3,5-dimethoxy-phenyl)-N6-(5-morpholin-4-ylmethyl-pyridin-2-yl)-[4,5′]bipyrimidinyl-6,4′-diamine], the 50% growth inhibitory concentration (GI50) lay within 100 to 250 nM.

Turning to `COc1cc(OC)c(F)c(Nc2ncncc2-c2cc(Nc3ccc(CN4CCOCC4)cn3)ncn2)c1F` [Compound 63, N4′-(2,6-Difluoro-3,5-dimethoxy-phenyl)-N6-(5-morpholin-4-ylmethyl-pyridin-2-yl)-[4,5′]bipyrimidinyl-6,4′-diamine], the concentration for 50% growth inhibition (GI50) is less than 100 nM.

`COc1cc(OC)c(Cl)c(Nc2ncncc2-c2cc(Nc3ccc(CCN4CCOCC4)cn3)ncn2)c1Cl` [Compound 18, N4′-(2,6-Dichloro-3,5-dimethoxy-phenyl)-N6-[5-(2-morpholin-4-yl-ethyl)-pyridin-2-yl]-[4,5′]bipyrimidinyl-6,4′-diamine] registered a GI50 of less than 100 nM.

Turning to `COc1cc(OC)c(Cl)c(Nc2ncncc2-c2cc(Nc3ccc(N4CCOCC4)cc3)ncn2)c1Cl` [Compound 11, N4′-(2,6-Dichloro-3,5-dimethoxy-phenyl)-N6-(4-morpholin-4-yl-phenyl)-[4,5′]bipyrimidinyl-6,4′-diamine], the GI50 was less than 100 nM.

In turn, `CCN1CCN(Cc2ccc(Nc3cc(-c4cncnc4Nc4c(F)c(OC)cc(OC)c4Cl)ncn3)nc2)CC1` [Compound 45, N4′-(2-Chloro-6-fluoro-3,5-dimethoxy-phenyl)-N6-[5-(4-ethyl-piperazin-1-ylmethyl)-pyridin-2-yl]-[4,5′]bipyrimidinyl-6,4′-diamine] gave a GI50 of less than 100 nM.

With `COc1cc(C(N)=O)c(Cl)c(Nc2ncncc2-c2cc(Nc3ccc(CN4CCOCC4)cn3)ncn2)c1Cl` [Compound 26, 2,4-Dichloro-5-methoxy-3-[6-(5-morpholin-4-yl-methyl-pyridin-2-ylamino)-[4,5′]bipyrimidinyl-4′-ylamino]-benzamide], the GI50 lay within 250 to 500 nM.

In turn, `CCN1CCN(Cc2ccc(NC(=O)c3cc(OC)c(Cl)c(Nc4ncncc4-c4cc(Nc5ccc(CN6CCOCC6)cn5)ncn4)c3Cl)cc2C(F)(F)F)CC1` [Compound 93, 2,4-dichloro-N-(4-((4-ethylpiperazin-1-yl)methyl)-3-(trifluoromethyl)phenyl)-5-methoxy-3-(6-(5-(morpholinomethyl)pyridin-2-ylamino)-4,5′-bipyrimidin-4′-ylamino)benzamide] came in with a GI50 of less than 100 nM.

In turn, `COc1cc(OC)c(Cl)c(Nc2ncncc2-c2cc(Nc3cc(CN4CCOCC4)ccn3)ncn2)c1C` [Compound 54, N4′-(2-Chloro-3,5-dimethoxy-6-methyl-phenyl)-N6-(4-morpholin-4-ylmethyl-pyridin-2-yl)-[4,5′]bipyrimidinyl-6,4′-diamine] displayed a concentration for 50% growth inhibition (GI50) of less than 100 nM.

As for `CCN1CCN(c2ccc(Nc3cc(-c4cncnc4Nc4c(Cl)c(OC)cc(C(=O)NC5CC5)c4Cl)ncn3)nc2)CC1` [Compound 55, 2,4-Dichloro-N-cyclopropyl-3-{6-[5-(4-ethyl-piperazin-1-yl)-pyridin-2-ylamino]-[4,5′]bipyrimidinyl-4′-ylamino}-5-methoxy-benzamide], the GI50 was less than 100 nM.

For the compound `COc1cc(OC)c(Cl)c(Nc2ncncc2-c2cc(NCCCN3CCOCC3)ncn2)c1Cl` [Compound 12, N4′-(2,6-Dichloro-3,5-dimethoxy-phenyl)-N6-(3-morpholin-4-yl-propyl)-[4,5′]bipyrimidinyl-6,4′-diamine], the 50% growth inhibitory concentration (GI50) was in the range of 100 to 250 nM.

In turn, `COc1cc(OC)c(Cl)c(Nc2ncncc2-c2cc(Nc3cncc(CN4CCOCC4)c3)ncn2)c1Cl` [Compound 21, N4′-(2,6-Dichloro-3,5-dimethoxy-phenyl)-N6-(5-morpholin-4-ylmethyl-pyridin-3-yl)-[4,5′]bipyrimidinyl-6,4′-diamine] yielded a GI50 of 250 to 500 nM.

Compound `COc1cc(OC)c(Cl)c(Nc2ncncc2-c2cc(Nc3ccc(C(C)O)cn3)ncn2)c1F` (stereo not shown) [Compound 79, 1-{6-[4′-(2-Chloro-6-fluoro-3,5-dimethoxy-phenylamino)-[4,5′]bipyrimidinyl-6-ylamino]-pyridin-3-yl}-ethanol] had a GI50 of less than 100 nM.

Compound `CCNC(=O)c1cc(OC)c(Cl)c(Nc2ncncc2-c2cc(Nc3cc(CN4CCOCC4)ccn3)ncn2)c1Cl` [Compound 33, 2,4-Dichloro-N-ethyl-5-methoxy-3-[6-(4-morpholin-4-ylmethyl-pyridin-2-ylamino)-[4,5′]bipyrimidinyl-4′-ylamino]-benzamide] yielded a GI50 of less than 100 nM.

On to `CCNC(=O)c1cc(OC)c(Cl)c(Nc2ncncc2-c2cc(Nc3ccc(CN4CCCC4)cn3)ncn2)c1Cl` [Compound 35, 2,4-Dichloro-N-ethyl-5-methoxy-3-[6-(5-pyrrolidin-1-ylmethyl-pyridin-2-ylamino)-[4,5′]bipyrimidinyl-4′-ylamino]-benzamide], for which the concentration for 50% growth inhibition (GI50) was less than 100 nM.

Compound `COc1cc(OC)c(Cl)c(Nc2ncncc2-c2cc(N)ncn2)c1Cl` [Compound 1, N4′-(2,6-Dichloro-3,5-dimethoxy-phenyl)-[4,5′]bipyrimidinyl-6,4′-diamine] gave a 50% growth inhibitory concentration (GI50) of 100 to 250 nM.

`COc1cc(OC)c(Br)c(Nc2ncncc2-c2cc(Nc3ccc(CN4CCOCC4)cn3)ncn2)c1Cl` [Compound 49, N4′-(2-Bromo-6-chloro-3,5-dimethoxy-phenyl)-N6-(5-morpholin-4-ylmethyl-pyridin-2-yl)-[4,5′]bipyrimidinyl-6,4′-diamine] registered a GI50 of less than 100 nM.

Consider `CNC(=O)N1CCN(Cc2ccc(Nc3cc(-c4cncnc4Nc4c(Cl)c(OC)cc(OC)c4Cl)ncn3)nc2)CC1` [Compound 20, 4-{6-[4′-(2,6-Dichloro-3,5-dimethoxy-phenylamino)-[4,5′]bipyrimidinyl-6-ylamino]-pyridin-3-ylmethyl}-piperazine-1-carboxylic acid methylamide], for which the concentration for 50% growth inhibition (GI50) was less than 100 nM.

For `COc1cc(OC)c(Cl)c(Nc2ncncc2-c2cc(Nc3ccc(C(C)O)cn3)ncn2)c1C` (stereo not shown) [Compound 81, 1-{6-[4′-(2-Chloro-3,5-dimethoxy-6-methyl-phenylamino)-[4,5′]bipyrimidinyl-6-ylamino]-pyridin-3-yl}-ethanol], the concentration for 50% growth inhibition (GI50) was less than 100 nM.

Turning to `CCN1CCN(Cc2ccc(Nc3cc(-c4cncnc4Nc4c(C)c(OC)cc(OC)c4Cl)ncn3)nc2)CC1` [Compound 53, N4′-(2-Chloro-3,5-dimethoxy-6-methyl-phenyl)-N6-[5-(4-ethyl-piperazin-1-ylmethyl)-pyridin-2-yl]-[4,5′]bipyrimidinyl-6,4′-diamine], the 50% growth inhibitory concentration (GI50) is less than 100 nM.

Source of the values: patent US8026243B2, “[4,5′]Bipyrimidinyl-6,4′-diamine derivatives as protein kinase inhibitors” (Novartis AG, priority 2006, dated 2011).
